{"source": "patent US7592419", "conditions": "rcm bond, CH2Cl2, 25.0 °C", "note": "Read-outs that look alike come from different tables or passages of the source."}
{"smiles": "COC(=O)[C@@H]1CCCCC=CCCCC(C)(C)[C@H](NC(=O)OCc2ccccc2)C(=O)N2C[C@H]3[C@@H]([C@H]2C(=O)N1)C3(C)C", "values": [{"measurement": "ring closure, yield of all isomers", "setting": "from C=CCCCC[C@H](NC(=O)[C@@H]1[C@@H]2[C@H](CN1C(=O)[C@@H](NC(=O)OCc1ccccc1)C(C)(C)CCCC=C)C2(C)C)C(=O)OC, Grubbs catalyst (Grubbs I), 101.1 mM, 24.0 h", "result": 44.5, "unit": "%"}]}
{"smiles": "COC(=O)[C@@H]1CCCCC=CCCCC[C@H](NC(=O)OC(C)(C)C)C(=O)N2C[C@H]3[C@@H]([C@H]2C(=O)N1)C3(C)C", "values": [{"measurement": "ring closure, yield of all isomers", "setting": "from C=CCCCC[C@H](NC(=O)[C@@H]1[C@@H]2[C@H](CN1C(=O)[C@H](CCCCC=C)NC(=O)OC(C)(C)C)C2(C)C)C(=O)OC, Grubbs I [(Cy3P)2Cl2Ru=CHPh], 100.0 mM, 24.0 h", "result": 48.2, "unit": "%"}]}
{"smiles": "COC(=O)[C@@H]1CCCCC=CCCCC[C@H](NC(=O)OCc2ccccc2)C(=O)N2C[C@@H]3OC(C)(C)C[C@@H]3[C@H]2C(=O)N1", "values": [{"measurement": "ring closure, yield of all isomers", "setting": "from C=CCCCC[C@H](NC(=O)[C@@H]1[C@H]2CC(C)(C)O[C@H]2CN1C(=O)[C@H](CCCCC=C)NC(=O)OCc1ccccc1)C(=O)OC, Grubbs I [(Cy3P)2Cl2Ru=CHPh], 50.0 mM, 24.0 h", "result": 58.9, "unit": "%"}]}
{"smiles": "COC(=O)CNC(=O)C(O)[C@@H]1CCCC=CCC[C@H](NC(=O)OCC(C)C)C(=O)N2CCC[C@H]2C(=O)N1", "note": "(stereo partly shown)", "values": [{"measurement": "ring closure, yield of all isomers", "setting": "from C=CCCC[C@H](NC(=O)[C@@H]1CCCN1C(=O)[C@H](CCC=C)NC(=O)OCC(C)C)C(O)C(=O)NCC(=O)OC, Grubbs catalyst (Grubbs I), 3.0 mM, 65.0 h", "result": 20, "unit": "%"}]}
